Columns and labels:
Akt2 = molecular target: T1, Akt2 (Homo sapiens, UniProt P31751); assay: Akt2 activity in human hepatocytes; format: cell-based
T1 construct: host or cells: primary human hepatocytes
Protocol: After thawing, the hepatocytes were distributed (approximately 10^6 cells per 100 mm plate) and incubated approximately 16 hours overnight in Dulbecco's minimal essential medium containing 5% fetal calf serum, 100 units/ml sodium-penicillin, 100 μg/ml streptomycin-sulfate, 1 μM insulin and 2 μM dexamethasone. After washing, cells were incubated first for 2 hours in William's E medium (Sigma-Aldrich, St. Louis, Mo., catalog no. W1878) containing GLUTAMAX™ (Gibco/Invitrogen, Carlsbad, Calif.), 100 units/ml sodium-penicillin, 100 μg/ml streptomycin-sulfate, 10 μM insulin, 100 nM dexamethasone, and then for 2 hours in William's E medium containing 100 units/ml sodium penicillin, 100 μg/ml streptomycin-sulfate, 100 nM dexamethasone, 0.25 mg/ml transferrin, 0.25 μg/ml sodium selenite and 10 μM insulin. Cells were then washed and incubated for 3 hours in the same medium, but lacking insulin. […]
Akt2 Assay: Akt2 enzyme activity was measured with a kit obtained from Upstate Cell Signaling, as described (Standaert et al., J. Biol. Chem. 279:24929-24934, 2004; Sajan et al., J. Lipid Res. 50:1133-1145, 2009; Sajan et al., Diabetologia 52:1197-1207, 2009; Farese et al., J. Clin. Invest. 117:2289-2301, 2007). […] Akt1/2 activation was also assessed by immunoblotting for phosphorylation of serine-473.

FoxO1 = assay: ser-256 phosphorylation of hepatic FoxO1 in wild type mice after a single ICAPP injection; format: in vivo, mouse; settings: 1.5 mg/kg ICAPP s.c., basally and in response to insulin
Protocol: Western Analyses: Western analyses were conducted as described (Standaert et al., J. Biol. Chem. 279:24929-24934, 2004; Sajan et al., J. Lipid Res. 50:1133-1145, 2009; Sajan et al., Diabetologia 52:1197-1207, 2009; Farese et al., J. Clin. Invest. 117:2289-2301, 2007), using the following antibodies/antisera for immunodetection after resolution of lysate proteins by SDS-PAGE: rabbit polyclonal anti-IRS-1 antiserum (Upstate Cell Signaling); rabbit polyclonal anti-IRS-2 antiserum (Santa Cruz Technologies); rabbit polyclonal anti-PKC-ζ/λ antiserum (Santa Cruz Biotechnologies); rabbit polyclonal anti-PKC-ζ antiserum (gift of Dr. Todd Sacktor); mouse monoclonal anti-PKC-ι/ζ antibodies (Transduction Laboratories/BD, East Rutherford, N.J.); rabbit polyclonal anti-Akt1/2 antiserum (Upstate Cell Signaling); rabbit polyclonal anti-phospho-serine -473-Akt1/2 antiserum (New England BioLabs, Beverly, Mass.): rabbit polyclonal anti-phospho-threonine-410-[…]/-403-PKC-ι/λ antiserum (Upstate Cell Signaling); rabbit polyclonal anti-phospho-threonine-560-PKC-ζ/-555-PKC-ι/λ antiserum (Invitrogen); and anti-p65/RelA subunit of NFκB (Santa Cruz Biotechnologies). […]
Wild type mice were treated with 1.5 mg/kg ICAPP subcutaneously and after 2-30 hours, the mice were treated with 1 U/kg insulin 15 minutes before euthanasia. aPKC activity was determined as described in Example 1.

T1 sequence (P31751 whole entry): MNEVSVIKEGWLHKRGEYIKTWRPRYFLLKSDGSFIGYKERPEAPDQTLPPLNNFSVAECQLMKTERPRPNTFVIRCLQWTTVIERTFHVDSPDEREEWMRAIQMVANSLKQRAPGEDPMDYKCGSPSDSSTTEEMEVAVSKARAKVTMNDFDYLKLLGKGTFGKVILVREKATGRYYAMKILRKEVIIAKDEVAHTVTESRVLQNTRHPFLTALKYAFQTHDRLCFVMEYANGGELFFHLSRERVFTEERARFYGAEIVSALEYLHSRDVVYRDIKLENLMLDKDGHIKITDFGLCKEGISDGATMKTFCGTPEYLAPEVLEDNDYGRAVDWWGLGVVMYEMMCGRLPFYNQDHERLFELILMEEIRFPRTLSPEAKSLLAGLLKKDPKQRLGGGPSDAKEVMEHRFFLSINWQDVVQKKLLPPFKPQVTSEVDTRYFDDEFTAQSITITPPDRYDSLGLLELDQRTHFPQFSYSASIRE

SMILES	insulin-induced increases in Akt activity (Akt2)	ser-256 phosphorylation of hepatic FoxO1 (FoxO1)
O=C([O-])CC([S][Au])C(=O)[O-] (stereo not drawn) [ATM, aurothiomalate, reference compound]	neither ICAPP nor ATM inhibited	
NC(=O)c1ncn([C@@H]2C[C@H](COP(=O)(O)O)[C@@H](O)[C@H]2O)c1N [ICAPP, 1H-imidazole-4-carboxamide, 5-amino-1-[2,3-dihydroxy-4-[(phosphonooxy)methyl]cyclopentyl]-[1R-(1α,2β,3β,4α)]]	neither ICAPP nor ATM inhibited	increased

— patent US8580769B2, “Treatment of obesity, metabolic syndrome, and diabetes with protein kinase C inhibitors” (The United States of America as represented by the …, priority 2011, dated 2013)
